Consider 14 molecules from the supplement of paper PMC11127212.

Data set [1] is described as follows: retention time on BEH HILIC column (20 min gradient, 0.4 mL/min); higher = later elution. Conditions: LC: HILIC. On the procedure:
(§1)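 Reference standards (20-100 uM) were separated by HILIC UPLC (BEH HILIC, 45 °C): acidic pH 3.0 ammonium formate/formic acid for ESI+ and basic pH 9.0 ammonium acetate/ammonia for ESI-. They were analysed on a Synapt G2-Si traveling-wave IMS-QTOF with nitrogen drift gas (WH 30 V; WV 800 m/s in ESI+ and 1000 m/s in ESI-).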

Data set [2] is described as follows: collision cross section (TWIMS, N2) of ion [M-H]-; higher = larger gas-phase ion cross section. Conditions: ionization: ESI negative; LC: HILIC, pH 9.0 ammonium acetate. On the procedure:
as §1

Data set [3] is described as follows: collision cross section (TWIMS, N2) of ion [M+H]+; higher = larger gas-phase ion cross section. Conditions: ionization: ESI positive; LC: HILIC, pH 3.0 ammonium formate. The protocol: as §1
Data set [4] in a line: collision cross section (TWIMS, N2) of ion [M+Na]+; higher = larger gas-phase ion cross section. Conditions: ionization: ESI positive; LC: HILIC, pH 3.0 ammonium formate. The protocol:
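Reference standards (20-100 uM) were separated by HILIC UPLC (BEH HILIC, 45 °C): acidic pH 3.0 ammonium formate/formic acid for ESI+ and basic pH 9.0 ammonium acetate/ammonia for ESI-. They were analysed on a Synapt G2-Si traveling-wave IMS-QTOF with nitrogen drift gas (WH 30 V; WV 800 m/s in ESI+ and 1000 m/s in ESI-). CCS (TWCCSN2, Å2) was calibrated with Major Mix IMS/TOF and LockCCS leucine enkephalin; inter-day RSD was <1%.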

The mark [5] stands for this setting: ionization: ESI negative, pH 9.0 ammonium acetate.
Setting [6] is: ionization: ESI positive, pH 3.0 ammonium formate.

For `Nc1ncnc2nc[nH]c12` [Adenine], the figures for the “retention time on BEH HILIC column” value in data set [1] (setting [5]) and in data set [1] (setting [6]) were 2.71 min and 2.59 min, respectively. Further, the figures for the collision cross section in data set [2], in data set [3] and in data set [4] were 126.29 Å², 125.13 Å² and 134.02 Å², respectively.

In the case of `C[N+](C)(C)CC(=O)O` [Betaine], the “retention time on BEH HILIC column” value in data set [1] (setting [6]) is 7.16 min. For the same molecule, the results for the collision cross section in data set [3] and in data set [4] were 125.33 Å² and 132.22 Å², respectively.

Consider `CCCCCCCCCCCCCCCCCCC(=O)O` [Nonadecanoic acid], for which the “retention time on BEH HILIC column” value in data set [1] (setting [5]) worked out at 0.73 min; in data set [1] (setting [6]), 0.77 min. The collision cross section in data set [2] turned out to be 188.17 Å²; in data set [4], 190.13 Å².

Turning to `O=C(O)CCCC(=O)C(=O)O` [Oxoadipic acid], the “retention time on BEH HILIC column” value is 5.03 min in data set [1] (setting [5]) and 4.84 min in data set [1] (setting [6]). Besides, the collision cross section in data set [2] was determined as 128.96 Å²; in data set [4], 136.98 Å².

For `CCCCCCCCCCCCCCCC(=O)O` [Palmitic acid], the “retention time on BEH HILIC column” value in data set [1] (setting [5]) was 0.77 min; in data set [1] (setting [6]), 0.72 min. Besides, the collision cross section in data set [2] is given as 170.14 Å²; in data set [4], 179.96 Å².

`OC[C@@H](O)[C@@H](O)[C@@H](O)CO` [Ribitol]: the “retention time on BEH HILIC column” value in data set [1] (setting [5]) is 3.57 min; in data set [1] (setting [6]), 2.85 min. Besides, the collision cross section in data set [2] amounted to 126.54 Å²; in data set [4], 133.34 Å².

In the case of `OC[C@@H](O)[C@@H](O)[C@H](O)[C@@H](O)CO` [Sorbitol], the “retention time on BEH HILIC column” value turned out to be 4.6 min in data set [1] (setting [5]) and 4.7 min in data set [1] (setting [6]). Further, the collision cross section is 133.44 Å² in data set [2] and 140.03 Å² in data set [4].

Turning to `CCCCCCCCCCCCCCCCCC(=O)O` [Stearic acid], the “retention time on BEH HILIC column” value in data set [1] (setting [5]) was determined as 0.73 min; in data set [1] (setting [6]), 0.75 min. Further, the collision cross section in data set [2] is 184.42 Å²; in data set [4] it was 186.65 Å².

Consider `OC[C@H]1O[C@@](CO)(O[C@H]2O[C@H](CO)[C@@H](O)[C@H](O)[C@H]2O)[C@@H](O)[C@@H]1O` [Sucrose], for which the “retention time on BEH HILIC column” value in data set [1] (setting [5]) was 6.6 min; in data set [1] (setting [6]), 6.77 min. In addition, the values for the collision cross section in data set [2] and in data set [4] were 169.11 Å² and 171.56 Å², respectively.

For the molecule `O=C(O)c1ccc(CO)o1` [Sumiki's acid], the “retention time on BEH HILIC column” value in data set [1] (setting [5]) came to 3.07 min; in data set [1] (setting [6]), 3.12 min. Further, the collision cross section was 128.72 Å² in data set [2] and 129.97 Å² in data set [4].

Take `O=C(O)/C=C(/CC(=O)O)C(=O)O` [cis-aconitic]: the “retention time on BEH HILIC column” value in data set [1] (setting [5]) was 2.8 min; in data set [1] (setting [6]), 2.24 min. Further, the collision cross section in data set [2] was found to be 126.73 Å²; in data set [4] it was 139.19 Å².

As to `O[C@H]1[C@H](O)[C@@H](O)[C@H](O)[C@@H](O)[C@H]1O` [myo-inositol], the entries for the “retention time on BEH HILIC column” value in data set [1] (setting [5]) and in data set [1] (setting [6]) were 5.92 min and 5.84 min, respectively. In addition, the collision cross section is reported as 133.54 Å² in data set [2] and 146 Å² in data set [4].

Consider `O=C(O)/C=C(\CC(=O)O)C(=O)O` [trans-aconitic acid], for which the “retention time on BEH HILIC column” value in data set [1] (setting [5]) and in data set [1] (setting [6]) was 2.23 min throughout. Moreover, the collision cross section was 118.87 Å² in data set [2] and 138.79 Å² in data set [4].

On to `COc1cc(/C=C/C(=O)O)ccc1O` [trans-ferulic acid], for which the “retention time on BEH HILIC column” value in data set [1] (setting [5]) worked out at 0.9 min; in data set [1] (setting [6]), 0.93 min. Also, the collision cross section in data set [2] worked out at 143.64 Å²; in data set [4], 161.96 Å².
